Laboratory results from patent US20190218226A1, “PRODRUGS OF ANTICANCER AGENTS INDOTECAN AND INDIMITECAN” (Purdue Research Foundation, priority 2016, published 2019).
Structures can show the parent of a compound that is named as a salt. Where two headings read alike, the source gives them in different places.

Columns and labels:
[1] = test system: all human cancer cell lines successfully tested (NCI60); experiment: NCI60 mean graph midpoint for growth inhibition; type: cell-based
Procedure: (§1) All of the indenoisoquinolines were tested for antiproliferative activity in the National Cancer Institute's 60 cell line screen (NCI60). The cells were incubated with the tested compounds at 100, 10, 1, 0.1, and 0.01 μM concentrations for 48 h before treatment with sulforhodamine B dye. Optical densities were recorded, and their ratios relative to that of the control were plotted as percentage growth against the log 10 of the tested compound concentrations. The concentration that corresponds to 50% growth inhibition (GI50) is calculated by interpolation between the points located above and below the 50% percentage growth. The mean-graph midpoint (MGM) is an estimated average of the GI50 values derived from the NCI collection of 60 human cancer cell lines, where during the MGM calculation, anticancer agents with GI50 values that are outside the testing range of 0.01-100 μM are arbitrarily assigned the values of 0.01 and 100 μM, respectively. […] Also, the GI50 values of many of the substances vs. individual human cancer cell lines are below the lowest concentration used (0.01 μM) in the standard NCI testing protocol. […] For example, the MGM cytotoxicity values of 9, 15-17, and 19 are all very close to each other, but the Top1 inhibitory activities range from +++(+) to 0.

UACC-62 = experiment: NCI60 antiproliferative screen, melanoma UACC-62; type: cell-based, human; conditions: UACC-62, 48 h, sulforhodamine B, read-out: Cytotoxicity (GI50) melanoma UACC-62
Procedure: as §1

HOP-62 = experiment: NCI60 antiproliferative screen, lung HOP-62; type: cell-based, human; conditions: HOP-62, 48 h, sulforhodamine B, read-out: Cytotoxicity (GI50) lung HOP-62
Procedure: as §1

Human recombinant Top1 = biological target: T1, Human recombinant Top1 (Homo sapiens, UniProt P11387); experiment: Top1-mediated DNA cleavage assay; type: biochemical; set-up: key to Top1 inhibitory activity (level): 0, no detectable activity; +, weak activity; ++, similar activity to compound 4; +++, greater activity than 4; ++++, equipotent with 1; ++(+) would be between ++ and +++; conditions: for Top 1 Cleavage: graded relative to 1 μM camptothecin; for Top1 inhibitory activity (level): scored relative to compounds 1 and 4
T1 construct: made in house
T1 sequence (P11387 1-765): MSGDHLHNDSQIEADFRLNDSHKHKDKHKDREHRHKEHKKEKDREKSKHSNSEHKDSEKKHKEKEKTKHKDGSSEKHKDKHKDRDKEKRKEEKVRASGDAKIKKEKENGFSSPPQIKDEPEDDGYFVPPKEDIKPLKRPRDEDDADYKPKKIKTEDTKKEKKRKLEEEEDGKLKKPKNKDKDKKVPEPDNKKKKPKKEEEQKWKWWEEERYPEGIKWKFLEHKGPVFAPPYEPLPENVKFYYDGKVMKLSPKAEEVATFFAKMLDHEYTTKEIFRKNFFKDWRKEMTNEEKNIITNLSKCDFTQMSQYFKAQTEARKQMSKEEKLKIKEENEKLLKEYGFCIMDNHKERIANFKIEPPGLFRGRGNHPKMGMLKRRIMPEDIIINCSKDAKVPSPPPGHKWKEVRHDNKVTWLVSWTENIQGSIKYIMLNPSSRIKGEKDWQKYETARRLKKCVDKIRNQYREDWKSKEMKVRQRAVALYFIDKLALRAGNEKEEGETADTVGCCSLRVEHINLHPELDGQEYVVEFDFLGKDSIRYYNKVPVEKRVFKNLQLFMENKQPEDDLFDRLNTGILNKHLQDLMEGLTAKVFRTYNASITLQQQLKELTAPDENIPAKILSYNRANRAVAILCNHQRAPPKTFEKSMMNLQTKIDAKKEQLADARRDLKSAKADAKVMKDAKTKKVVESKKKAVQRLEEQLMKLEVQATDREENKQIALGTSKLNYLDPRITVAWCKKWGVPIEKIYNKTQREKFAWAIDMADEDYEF
Procedure: All of the new indenoisoquinoline derivatives were tested in Top1-mediated DNA cleavage assays. For this purpose, a ^32P 3′-end labeled 117-bp DNA fragment was incubated with Top1 at four concentrations of a tested compound. The DNA fragments were separated on 20% PAGE denaturing gels. The Top1 inhibitory activities were assigned on the basis of the visual inspection of the number and intensities of the gel bands corresponding to Top1-mediated DNA cleavage fragments and scored relative to the Top1 inhibitory activity of compounds 1 and 4. Results are expressed in semiquantitative fashion: 0, no detectable activity; +, weak activity; ++, similar activity to compound 4; +++, greater activity than 4; ++++, equipotent with 1. Ambiguous scores (e.g., between two values) are designated with parentheses (e.g., ++(+) would be between ++ and +++). […] After conversion of the hydroxyl to a dimethylcarbamate, the observed Top1 inhibitory activity increased from ++(+) for compound 8 to +++ for compound 10. Introduction of an acetyl group at the 0-2 position yielded compound 11, which was also a Top1 poison with activity at the ++ level. Subsequently, several hydrophobic substituents were attached to the 0-2 position.
Topoisomerase I-Mediated DNA Cleavage Reactions.
Human recombinant Top1 was purified from baculovirus as previously described (Morrell, A., et al., J. Med. Chem. 2007, 50, 2040-2048). DNA cleavage reactions were prepared as previously reported with the exception of the DNA substrate (Strumberg, D., et al., J. Med. Chem. 1999, 42, 446-457). Briefly, a 117-bp DNA oligonucleotide (Integrated DNA Technologies) encompassing the previously identified Top1 cleavage sites in the 161-bp fragment from pBluescript SK(−) phagemid DNA was employed. This 117-bp oligonucleotide contains a single 5′-cytosine overhang, which was 3′-end-labeled by fill-in reaction with [α-^32P]dGTP in React 2 buffer (50 mM Tris-HCl, pH 8.0, […], 50 mM NaCl) with 0.5 unit of DNA polymerase I (Klenow fragment, New England BioLabs). Unincorporated [^32P]dGTP was removed using mini Quick Spin DNA columns (Roche, Indianapolis, Ind.), and the eluate containing the 3′-end-labeled DNA substrate was collected. Approximately 2 nM radiolabeled DNA substrate was incubated with recombinant Top1 in 20 μL of reaction buffer [10 mM Tris-HCl (pH 7.5), 50 mM KCl, 5 mM MgCl2, 0.1 mM EDTA, and 15 μg/mL BSA] at 25° C. for 20 min in the presence of various concentrations of compounds. The reactions were terminated by adding SDS (0.5% final concentration) followed by the addition of two volumes of loading dye (80% formamide, 10 mM sodium hydroxide, 1 mM sodium EDTA, 0.1% xylene cyanol, and 0.1% bromophenol blue). Aliquots of each reaction mixture were subjected to 20% denaturing PAGE. Gels were dried and visualized by using a phosphoimager and ImageQuant software (Molecular Dynamics). For simplicity, cleavage sites were numbered as previously described in the 161-bp fragment.

DU-145 = experiment: NCI60 antiproliferative screen, prostate DU-145; type: cell-based, human; conditions: DU-145, 48 h, sulforhodamine B, read-out: Cytotoxicity (GI50) prostate DU-145
Procedure: as §1

OVCAR-3 = experiment: NCI60 antiproliferative screen, ovarian OVCAR-3; type: cell-based, human; conditions: OVCAR-3, 48 h, sulforhodamine B, read-out: Cytotoxicity (GI50) Ovarian OVCAR-3
Procedure: as §1

MCF-7 = experiment: NCI60 antiproliferative screen, breast MCF-7; type: cell-based, human; conditions: MCF-7, 48 h, sulforhodamine B, read-out: Cytotoxicity (GI50) breast MCF-7
Procedure: as §1

SN12C = experiment: NCI60 antiproliferative screen, renal SN12C; type: cell-based, human; conditions: 48 h, sulforhodamine B, read-out: Cytotoxicity (GI50) renal SN12C
Procedure: as §1

SF-539 = experiment: NCI60 antiproliferative screen, CNS SF-539; type: cell-based, human; conditions: SF-539, 48 h, sulforhodamine B, read-out: Cytotoxicity (GI50) CNS SF-539
Procedure: as §1

HCT-116 = experiment: NCI60 antiproliferative screen, colon HCT-116; type: cell-based, human; conditions: HCT-116, 48 h, sulforhodamine B, read-out: Cytotoxicity (GI50) Colon HCT-116
Procedure: as §1

[2] = all human cancer cell lines successfully tested, ± standard error, read-out: MGM (mean graph midpoint for growth inhibition)

With `COc1cc2c(=O)n(CCCN3CCOCC3)c3c(c2cc1OC(=O)N(C)C)C(=O)c1cc2c(cc1-3)OCO2` [Compound 10, 3-Methoxy-6-(3-morpholinopropyl)-5,12-dioxo-6,12-dihydro-5H-[1,3]dioxolo[4′,5′:5,6]indeno[1,2-c]isoquinolin-2-yl Dimethylcarbamate] the “GI50's against various cell lines (range in words)” value ([1]; NCI60) was “micromolar range”, the mean GI50 across NCI60 cell lines (MGM) [1, 2] was 3460 ± 999 nM and the GI50 (UACC-62; Homo sapiens) was 4470 nM. For the same compound, the GI50 (HOP-62; Homo sapiens) was 1700 nM, the “Top1 inhibitory activity (in words)” value (Human recombinant Top1) was “slight improvement in Top1 inhibitory activity” and the “Top 1 Cleavage” value (Human recombinant Top1) was “+++ (+++, between 75 and 95% activity)”. The “Top1 inhibitory activity (level)” value (Human recombinant Top1) was “+++”, the GI50 (DU-145; Homo sapiens) was 1550 nM and the GI50 (OVCAR-3; Homo sapiens) was 12000 nM. The melting point was 268 to 270 °C (dec.), the GI50 (MCF-7; Homo sapiens, MCF7) was 22 nM and the GI50 (SN12C; Homo sapiens) was 2400 nM. The GI50 (SF-539; Homo sapiens) was 1860 nM and the GI50 (HCT-116; Homo sapiens) was 6070 nM.
Compound `COc1cc2c(=O)n(CCCN3CCOCC3)c3c(c2cc1OC(=O)c1cccnc1)C(=O)c1cc2c(cc1-3)OCO2` [Compound 14, 3-Methoxy-6-(3-morpholinopropyl)-5,12-dioxo-6,12-dihydro-5H-[1,3]dioxolo[4′,5′:5,6]indeno[1,2-c]isoquinolin-2-yl Nicotinate] has a mean GI50 across NCI60 cell lines (MGM) ([1]; Homo sapiens, NCI60, read-out: MGM value) of 158 ± 65 nM, a mean GI50 across NCI60 cell lines (MGM) [1, 2] of 158 ± 65 nM and a GI50 (UACC-62; Homo sapiens) of 22 nM. The GI50 (HOP-62; Homo sapiens) was 12 nM, the “Top1 inhibitory activity (in words)” value (Human recombinant Top1) was “slight improvement in Top1 inhibitory activity” and the “Top 1 Cleavage” value (Human recombinant Top1) was “+++ (+++, between 75 and 95% activity)”. For the same compound, the “Top1 inhibitory activity (level)” value (Human recombinant Top1) was “+++”, the GI50 (DU-145; Homo sapiens) was 13 nM and the GI50 (OVCAR-3; Homo sapiens) was 295 nM. The melting point was 277 to 279 °C (dec.), the GI50 (MCF-7; Homo sapiens, MCF7) was under 10 nM and the GI50 (SN12C; Homo sapiens) was under 10 nM. The GI50 (SF-539; Homo sapiens) was under 10 nM and the GI50 (HCT-116; Homo sapiens) was 30 nM.
Compound `COc1cc2c3c(n(CCCN4CCOCC4)c(=O)c2cc1OC(=O)N(C)C)-c1cc2c(cc1C3=O)OCO2` [Compound 15, 2-Methoxy-6-(3-morpholinopropyl)-5,12-dioxo-6,12-dihydro-5H-[1,3]dioxolo[4′,5′:5,6]indeno[1,2-c]isoquinolin-3-yl Dimethylcarbamate] has a mean GI50 across NCI60 cell lines (MGM) [1, 2] of 70 ± 28 nM, a GI50 (UACC-62; Homo sapiens) of 17 nM and a GI50 (HOP-62; Homo sapiens) of 32 nM. For the same compound, the GI50 (DU-145; Homo sapiens) was 32 nM, the GI50 (OVCAR-3; Homo sapiens) was 105 nM and the melting point was 290 to 292 °C. It also gave a GI50 (MCF-7; Homo sapiens, MCF7) of under 10 nM, a GI50 (SN12C; Homo sapiens) of 25 nM and a GI50 (SF-539; Homo sapiens) of 21 nM. The GI50 (HCT-116; Homo sapiens) was 26 nM.
With `COc1cc2c3c(n(CCCN4CCOCC4)c(=O)c2cc1OC(=O)c1ccccc1)-c1cc2c(cc1C3=O)OCO2` [Compound 18, 2-Methoxy-6-(3-morpholinopropyl)-5,12-dioxo-6,12-dihydro-5H-[1,3]dioxolo[4′,5′:5,6]indeno[1,2-c]isoquinolin-3-yl Benzoate] the “GI50's against various cell lines (range in words)” value ([1]; NCI60) was “micromolar range”, the “cytotoxicity relative to parent compound (in words)” value ([1]; NCI60) was “significantly less cytotoxic than their respective parent compounds” and the mean GI50 across NCI60 cell lines (MGM) [1, 2] was 3190 ± 622 nM. The GI50 (UACC-62) was 59 nM, the GI50 (HOP-62) was 2140 nM and the “Top1 inhibitory activity (in words)” value (Human recombinant Top1) was “weak Top1 poisons”. The “Top 1 Cleavage” value (Human recombinant Top1) was “+ (+, between 20 and 50% activities)”, the GI50 (DU-145) was 724 nM and the GI50 (OVCAR-3) was 30900 nM. It also gave a GI50 (MCF-7) of 15 nM, a GI50 (SN12C) of 195 nM and a GI50 (SF-539) of 135 nM. It also gave a GI50 (HCT-116) of 5890 nM.
With `COc1cc2c3c(n(CCCN4CCOCC4)c(=O)c2cc1OS(=O)(=O)O)-c1cc2c(cc1C3=O)OCO2` [Compound 20, 2-Methoxy-6-(3-morpholinopropyl)-5,12-dioxo-6,12-dihydro-5H-[1,3]dioxolo[4′,5′:5,6]indeno[1,2-c]isoquinolin-3-yl Hydrogen Sulfate] the mean GI50 across NCI60 cell lines (MGM) [1, 2] was 912 nM, the GI50 (UACC-62) was 263 nM and the GI50 (HOP-62) was 389 nM. The “Top 1 Cleavage” value (Human recombinant Top1) was “++ (++, between 50 and 75% activity)”, the GI50 (DU-145) was 417 nM and the GI50 (OVCAR-3) was 1120 nM. It also gave a GI50 (MCF-7) of 209 nM, a GI50 (SN12C) of 355 nM and a GI50 (SF-539) of 263 nM. For the same compound, the GI50 (HCT-116) was 389 nM.
